Test system: Wistar (Crl:WI(Han)) rats
Assay: Mass spectrometry-based plasma metabolite profiling of rats treated with known inducers of thyroid function impairment
Assay type: in vivo, rat
Settings: ratio of group medians vs controls
Procedure, shortened: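 Rats aged 10-11 weeks, 5/sex/dose vs 10/sex controls, dosed at low and high levels; retro-orbital plasma taken under isoflurane on days 7, 14 and 28 after 16-20 h fast. Polar and non-polar fractions profiled by GC-MS (derivatised) and LC-MS/MS (MRM plus full scan), normalised to pool samples; Welch t-test by sex and day gives p-values and median ratios.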

[1] = female rats, fh7 (study day 7), Table 1
[2] = female rats, fh14 (study day 14), Table 1
[3] = female rats, fh28 (study day 28), Table 1
[4] = male rats, mh7 (study day 7), Table 2
[5] = male rats, mh7 (study day 7), Table 4
[6] = male rats, mh14 (study day 14), Table 2
[7] = male rats, mh14 (study day 14), Table 4
[8] = male rats, mh28 (study day 28), Table 2
[9] = male rats, mh28 (study day 28), Table 4

5-O-Methylsphingosine [1]: 3.55 | Asparagine [1]: 1.17 | Behenic acid (C22:0) [1]: 2.08 | Citrate [1]: 0.83 | Docosahexaenoic acid (C22:cis[4,7,10,13,16]6) [1]: 2.16 | Glycine [1]: 1.14 | Ketoleucine [1]: 0.86 | Lysophosphatidylcholine (C18:2) [1]: 1.52 | Phosphatidylcholine (C16:1, C18:2) [1]: 1.89 | Phosphatidylcholine (C18:2, C20:4) [1]: 1.39 | Pyruvate [1]: 0.62 | Tricosanoic acid (C23:0) [1]: 2.05 | erythro-Sphingosine [1]: 2.56 | threo-Sphingosine [1]: 2.46 | Sphingomyelin (d18:1, C16:0) (female rats, fh7 (study day 7), Table 1, first listing): 1.89 | Sphingomyelin (d18:1, C16:0) (female rats, fh7 (study day 7), Table 1, second listing): 1.45 | 5-O-Methylsphingosine [2]: 3.80 | Asparagine [2]: 1.12 | Behenic acid (C22:0) [2]: 2.63 | Citrate [2]: 0.76 | Docosahexaenoic acid (C22:cis[4,7,10,13,16]6) [2]: 1.32 | Glycine [2]: 1.14 | Ketoleucine [2]: 0.80 | Lysophosphatidylcholine (C18:2) [2]: 1.57 | Phosphatidylcholine (C16:1, C18:2) [2]: 2.40 | Phosphatidylcholine (C18:2, C20:4) [2]: 1.25 | Pyruvate [2]: 0.53 | Tricosanoic acid (C23:0) [2]: 2.54 | erythro-Sphingosine [2]: 3.21 | threo-Sphingosine [2]: 3.21 | Sphingomyelin (d18:1, C16:0) (female rats, fh14 (study day 14), Table 1, first listing): 2.54 | Sphingomyelin (d18:1, C16:0) (female rats, fh14 (study day 14), Table 1, second listing): 1.44 | 5-O-Methylsphingosine [3]: 2.83 | Asparagine [3]: 1.12 | Behenic acid (C22:0) [3]: 2.03 | Citrate [3]: 0.84 | Docosahexaenoic acid (C22:cis[4,7,10,13,16]6) [3]: 1.22 | Glycine [3]: 1.28 | Ketoleucine [3]: 0.78 | Lysophosphatidylcholine (C18:2) [3]: 1.31 | Phosphatidylcholine (C16:1, C18:2) [3]: 2.21 | Phosphatidylcholine (C18:2, C20:4) [3]: 1.33 | Pyruvate [3]: 0.79 | Tricosanoic acid (C23:0) [3]: 1.96 | erythro-Sphingosine [3]: 2.44 | threo-Sphingosine [3]: 2.37 | Sphingomyelin (d18:1, C16:0) (female rats, fh28 (study day 28), Table 1, first listing): 1.77 | Sphingomyelin (d18:1, C16:0) (female rats, fh28 (study day 28), Table 1, second listing): 1.31 | 3-O-Methylsphingosine [4]: 3.47 | 5-O-Methylsphingosine [4]: 3.57 | 14-Methyl-Pentadecanoic acid [4]: 1.13 | 17-Methyloctadecanoic acid [4]: 1.36 | Arginine [4]: 1.09 | Cholesterol [4]: 1.98 | Citrate [4]: 0.69 | Dihom-gamma-Linolenic acid (C20:cis[8,11,14]3) [4]: 2.38 | Lignoceric acid (C24:0) [4]: 2.12 | Phytosphingosine [4]: 2.08 | Sphingomyelin (d18:1, C16:0) [4]: 2.24 | Tricosanoic acid (C23:0) [4]: 1.93 | alpha-Tocopherol [4]: 1.76 | erythro-Sphingosine [4]: 2.92 | threo-Sphingosine [4]: 3.02 | Glutamate (male rats, mh7 (study day 7), Table 2, first listing): 0.61 | Glutamate (male rats, mh7 (study day 7), Table 2, second listing): 0.75 | Behenic acid (C22:0) [5]: 2.02 | Cholesterol [5]: 1.69 | Citrate [5]: 0.69 | Cytosine [5]: 0.65 | Galactose, lipid fraction [5]: 1.60 | Glycerol phosphate [5]: 2.09 | Glycine [5]: 1.42 | Lignoceric acid (C24:0) [5]: 2.12 | Mannose [5]: 1.06 | Nervonic acid C24:(cis[15]1) [5]: 2.59 | Phospha-tidylcholine (C18:0, 18:2) [5]: 1.11 | Sphingomyelin (d18:1, C16:0) [5]: 2.24 | Stearic acid (C18:0) [5]: 1.34 | Threonic acid [5]: 0.72 | dihomo-gamma-Linolenic acis (C20:cis[8,11,14]3) [5]: 2.38 | erythro-Sphingosine [5]: 2.92 | myo-Inositol-2-phosphate [5]: 2.55 | threo-Sphingosine [5]: 3.02 | 3-O-Methylsphingosine [6]: 3.85 | 5-O-Methylsphingosine [6]: 4.15 | 14-Methyl-Pentadecanoic acid [6]: 0.85 | 17-Methyloctadecanoic acid [6]: 0.92 | Arginine [6]: 1.09 | Cholesterol [6]: 2.31 | Citrate [6]: 0.69 | Dihom-gamma-Linolenic acid (C20:cis[8,11,14]3) [6]: 3.22 | Lignoceric acid (C24:0) [6]: 2.82 | Phytosphingosine [6]: 2.92 | Sphingomyelin (d18:1, C16:0) [6]: 2.27 | Tricosanoic acid (C23:0) [6]: 2.69 | alpha-Tocopherol [6]: 2.66 | erythro-Sphingosine [6]: 3.71 | threo-Sphingosine [6]: 3.78 | Glutamate (male rats, mh14 (study day 14), Table 2, first listing): 0.57 | Glutamate (male rats, mh14 (study day 14), Table 2, second listing): 0.49 | Behenic acid (C22:0) [7]: 3.03 | Cholesterol [7]: 1.93 | Citrate [7]: 0.69 | Cytosine [7]: 0.46 | Galactose, lipid fraction [7]: 1.46 | Glycerol phosphate [7]: 1.67 | Glycine [7]: 1.25 | Lignoceric acid (C24:0) [7]: 2.82 | Mannose [7]: 1.04 | Nervonic acid C24:(cis[15]1) [7]: 3.00 | Phospha-tidylcholine (C18:0, 18:2) [7]: 1.28 | Sphingomyelin (d18:1, C16:0) [7]: 2.27 | Stearic acid (C18:0) [7]: 1.40 | Threonic acid [7]: 0.69 | dihomo-gamma-Linolenic acis (C20:cis[8,11,14]3) [7]: 3.22 | erythro-Sphingosine [7]: 3.71 | myo-Inositol-2-phosphate [7]: 2.35 | threo-Sphingosine [7]: 3.78 | 3-O-Methylsphingosine [8]: 4.55 | 5-O-Methylsphingosine [8]: 3.40 | 14-Methyl-Pentadecanoic acid [8]: 0.54 | 17-Methyloctadecanoic acid [8]: 0.45 | Arginine [8]: 1.14 | Cholesterol [8]: 2.03 | Citrate [8]: 0.73 | Dihom-gamma-Linolenic acid (C20:cis[8,11,14]3) [8]: 2.02 | Lignoceric acid (C24:0) [8]: 2.16 | Phytosphingosine [8]: 3.04 | Sphingomyelin (d18:1, C16:0) [8]: 1.92 | Tricosanoic acid (C23:0) [8]: 2.50 | alpha-Tocopherol [8]: 2.18 | erythro-Sphingosine [8]: 3.47 | threo-Sphingosine [8]: 4.30 | Glutamate (male rats, mh28 (study day 28), Table 2, first listing): 0.46 | Glutamate (male rats, mh28 (study day 28), Table 2, second listing): 0.40 | Behenic acid (C22:0) [9]: 3.01 | Cholesterol [9]: 1.56 | Citrate [9]: 0.73 | Cytosine [9]: 0.39 | Galactose, lipid fraction [9]: 1.53 | Glycerol phosphate [9]: 1.46 | Glycine [9]: 0.98 | Lignoceric acid (C24:0) [9]: 2.16 | Mannose [9]: 0.87 | Nervonic acid C24:(cis[15]1) [9]: 2.23 | Phospha-tidylcholine (C18:0, 18:2) [9]: 1.35 | Sphingomyelin (d18:1, C16:0) [9]: 1.92 | Stearic acid (C18:0) [9]: 1.16 | Threonic acid [9]: 0.69 | dihomo-gamma-Linolenic acis (C20:cis[8,11,14]3) [9]: 2.02 | erythro-Sphingosine [9]: 3.47 | myo-Inositol-2-phosphate [9]: 1.85 | threo-Sphingosine [9]: 4.30
Compound: Cn1cc[nH]c1=S [Methimazole]

Source: US20120132797A1, “MEANS AND METHODS FOR DIAGNOSING THYROID DISORDERS” (BASF SE, priority 2009, published 2012)
